Test results as given in US9428815B2, “HIV-1 reverse transcriptase codon deletion and its use in the management and treatment of HIV infections” (Emory University, priority 2007, dated 2016).

Legend:
[1] = target: T1, Wild type Reverse Transcriptase (Human immunodeficiency virus type 1 group M subtype B, UniProt P12497); assay: Heteropolymeric DNA polymerase RT assay in the absence of ATP, wild type RT; type: biochemical, HIV-1; settings: for IC50: Wild type RT; for Fold-incr: Wild type RT (reference)
T1 construct: The level of resistance to NRTI-TP by the S68del mutants compared to wild type RT
Protocol: The level of resistance to NRTI-TP by the S68del mutants compared to wild type RT was determined as IC50 values of RT activity in the absence of ATP (Table 6). […] The RT activity was linear during the assay time within the substrate range used, and thus steady state kinetics were assumed.

[2] = target: T2, Recombinant S68del Reverse Transcriptase (Human immunodeficiency virus type 1 group M subtype B, UniProt P12497, DEL655-655); assay: Heteropolymeric DNA polymerase RT assay in the absence of ATP, recombinant S68del RT; type: biochemical, HIV-1
T2 construct: The amplified PCR product comprising the RT of pNL4-3 was ligated into the linearized pQE60; inferred from the pQE60 vector and the in-frame BglII site of the reverse primer without a stop codon) (C); made in house; host or cells: bacteria
Protocol: (§1) Nucleic acids were separated by gel electrophoresis in a TAE gel and extracted from bands using the Qiagen gel extraction kit. The 4.2 kb band from pNL4-3 containing the HIV-RT encoding sequences was ligated into the linearized pCR2.1, making the construct MC002. Site directed mutagenesis was performed on the MC002 plasmid. Primers used had the S68 codon AGT deleted, thus introducing the S68 deletion into the pNL4-3 RT background.
(§2) To ligate the RT of pNL4-3 comprising the deletion at S68 codon 68 into protein expression vector […] (Invitrogen), MC002 was amplified using forward primer 5′-[…]-3′ (SEQ ID NO: 10) and reverse primer 5′-[…] […]-3′ (SEQ ID NO: 11). The PCR product and pQE60 were digested with Bgl II and Nco I. The digested products were separated by gel electrophoresis nucleic acids in excised gel bands extracted using the Qiagen gel extraction kit. The amplified PCR product comprising the RT of pNL4-3 was ligated into the linearized pQE60. The ligation mix was transformed into chemically competent bacteria (Alpha-select). Plasmid DNA from selected transformants was extracted using a mini-prep kit (Qiagen). Plasmid DNA was sequenced in both directions to confirm the ligation.
(§3) The principle and performance of the non-radioactive RT assay has been described (Lennerstrand et al., Antimicrob. Agents Chemother. 2007; 51:2078-2084). Separate kit components, such as covalently-linked DNA microtiter plates and tracer solution (alkaline phosphate (AP)-conjugated anti-BrdU antibody) were obtained from Cavidi Tech, Uppsala, Sweden. In brief, the 96-well microtiter plate used consisted of an 18 base heteropolymeric DNA primer covalently bound to the well. In the RT assay, the DNA primer is bound to a 50-base DNA template at 50 ng/well (190 nM) with a 5′-A12-3′ tail with a 5′-(GTCA)5-3′ repeat (Integrated DNA Technologies, USA). The RT assay reaction mixture (total volume 150 μl/well) contained: Hepes 50 mM, pH 7.3; MgCl2 10 mM; Triton X-100 0.5%; bovine serum albumin 0.1 mg/ml; dATP, dGTP, dCTP and 5-bromo-2′-deoxyuridine-5′-triphosphate (BrdUTP) at 1.0 μM each (where BrdUTP replaces TTP) (Sigma). To obtain ATP primer unblocking reaction in the assay, the ATP (Amersham/GE Health Care) was set to physiological concentration (3.2 mM). However, the ATP was only used in the assay with virus pellets as sample, not merely for primer unblocking reaction but to protect degradation of substrate in the crude sample. Furthermore, the dNTP level including BrdUTP was increased from 1 μM to 4 μM for the assay with the virus pellet samples. Subsequently, in the assay with recombinant purified RT enzyme, no ATP besides 1 μM dNTP was used.
(§4) The reaction was started with the addition of RT either as recombinant or crude virus pellet form in a similar activity range as previous published (Lennerstrand et al., Antimicrob. Agents Chemother. 2007; 51:2078-2084). The RT reaction mixture was incubated at 33° C. for 180 min and terminated by NaOH (to dehybridize the template) and water washing of the plates.

[3] = test system: Recombinant S68del Reverse Transcriptase; assay: as above; type: biochemical, HIV-1; settings: Recombinant S68del RT IC50 divided by wild type IC50
Protocol: as §1, §2, §3, §4

[4] = target: T3, RT from virally-derived S68del (Human immunodeficiency virus type 1 group M subtype B, UniProt P03367, DEL667-667); assay: Heteropolymeric-DNA colorimetric RT assay with 3.2 mM ATP, particle-derived S68del RT; type: biochemical, HIV-1; settings: for fold increase in resistance: virally-derived S68del RT, relative to HIVLAI, enzymatic assay
T3 construct: The resistance of RT derived from S68del and M184V particles; made in house; host or cells: crude virus pellet; the virus was passaged in human PBM cells
Text: as §3, §4

[5] = test system: HIVs68Δ-23 (S68del virus isolated at week 23); assay: 3H-TTP RT incorporation assay, drug susceptibility of in vitro-selected S68del virus in human PBM cells; type: cell-based, HIV-1; settings: for EC50 / EC90: HIVs68Δ-23 in human PBM cells, averages of 2-6 independent experiments; for FI EC50 (fold increase in 50% effective concentration) / FI EC90 (fold increase in 90% effective concentration): HIVs68Δ-23 relative to HIVLAI; for resistance of S68del (in words): S68del mutant HIV, summary statement; for HIVs68Δ-23 susceptibility (in words): NNRTI / PI
Protocol: Peripheral blood mononuclear (PBM) cells were separated by ficoll-hypaque (Histopaque 1077: Sigma) density gradient centrifugation from Buffy coats obtained from the American Red Cross (Atlanta, Ga.). Buffy coats were derived from healthy seronegative donors. Cells were activated with 3 μg/ml phytohaemagglutinin A (Sigma-Aldrich, St. Louis, Mo.) in 500 ml of RPMI-1640 (Mediatech Inc., Herndon, Va.) containing 100 ml heat-inactivated fetal bovine serum (Hyclone), 83.3 IU/ml penicillin, 83.3 μg/ml streptomycin, 1.6 mM L-glutamine (Mediatech Inc., Herndon, Va.), for 2-3 days prior to use.
Drug resistance of the S68del virus isolated at week 23 (HIVs68Δ-23) was measured with the 3H-TTP RT incorporation assay in human PBM cells (Schinazi, et al., Antimicrob. Agents Chemother. 1990; 34:1061-1067; Stuyver et al., Antimicrob. Agents Chemother. 2002; 46:3854-60). HIVs68Δ-23 was population sequenced to ensure the dominant population was the deletion at codon 68. […] The susceptibility of the S68del virus to several nucleoside reverse transcriptase inhibitors (NRTI), a non-nucleoside reverse transcriptase inhibitor (NNRTI) and a protease inhibitor (PI) was tested. Fold increases were measured relative to HIVLAI (Table 4, FIGS. 2 and 3). Data are the averages of 2-6 independent experiments.

pNL4-3 = assay: Quantitative HIV-1 real-time PCR assay in human PBM cells, pNL4-3 virus; type: cell-based; settings: Human immunodeficiency virus 1, PBMC, pNL4-3 in human PBM cells
Text: The real-time PCR assay for quantifying virus levels in PBM cells serves as a more sensitive method for measuring drug resistance of S68del HIV-1 than other standard methods. SK38 Primer: ATAATCCACCTATCCCAGTAGGAGAAAT (SEQ ID NO: 1) and SK39 Primer: TTTGGTCCTTGTCTTATGTCCAGAATGC (SEQ ID NO: 2) were used in the real-time PCR assay. The presence of amplified product was detected with the SK19 probe: ATCCTGGGATTAAATAAAATAGTAAGAATGTATAG (SEQ ID NO: 3). […] Four concentrations were tested in duplicate for each data point.

S68delpNL4-3 = assay: microbe, parasite or virus in culture; type: cell-based, HIV-1
Text: An intermediate vector with a 4 kb fragment of pNL4-3 ([…]) containing the RT coding region was cloned into the pCR2.1 vector (Invitrogen). […] The HIV-1 fragment from the intermediate vector was digested with Spe I/Age I and subcloned into the full-length pNL4-3 vector. The S68del pNL4-3-based infectious clone was then transfected into HEK293T cells and supernatant was collected after 4 days. The supernatant obtained from HEK293T was used to infect fresh PBM cells, after which the HIV-1 virus pool was passaged to establish an infective pool.
Four concentrations were tested in duplicate for each data point.

[6] = Human immunodeficiency virus 1, PBMC
[7] = Human immunodeficiency virus 1, PBMC, S68del in pNL4-3, human PBM cells, real-time PCR

Compound: Nc1nc(=O)n(C2CSC(COP(=O)(O)OP(=O)(O)OP(=O)(O)O)O2)cc1F (single isomer, unassigned; (-)) [(−)FTC-TP]
- IC50 [1]: 3.5 ± 0.3 µM
- Fold-incr [1]: 1.0
- IC50 [2]: 27 ± 2 µM
- Fold-incr [3]: 7.7
- fold increase in resistance [4]: 10 fold

Compound: Nc1nc2c(ncn2C2COC(CO)O2)c(=O)[nH]1 (single isomer, unassigned; (-)) [DXG, (−)-9-(beta-D-dioxolane)guanine]
- EC50 [5]: 1.6 µM
- EC90 [5]: 5.1 µM
- FI EC50 (fold increase in 50% effective concentration) [5]: 6.2
- FI EC90 (fold increase in 90% effective concentration) [5]: 3.7

Compound: Nc1ccn([C@@H]2CS[C@H](CO)O2)c(=O)n1 [3TC, (−)-cis-2-hydroxymethyl-5-(cytosin-1-yl)-1,3-oxathiolane]
- EC50 [5, 6]: 0.88 µM
- EC90 [5, 6]: 3.3 µM

Compound: Cc1cn([C@H]2C[C@H](N=[N+]=[N-])[C@@H](CO)O2)c(=O)[nH]c1=O [AZT, 3′-azido-3′-deoxythymidine]
- EC50 (pNL4-3): 0.13 µM
- EC90 (pNL4-3): 0.33 µM
- EC50 [5, 6]: 0.0038 µM
- EC90 [5, 6]: 0.014 µM
- resistance of S68del (in words) [5]: does not show increased resistance

Compound: Cc1cn(C2CC(N=[N+]=[N-])C(COP(=O)(O)OP(=O)(O)OP(=O)(O)O)O2)c(=O)[nH]c1=O (stereo not drawn) [AZT-TP]
- IC50 [1]: 0.27 ± 0.02 µM
- Fold-incr [1]: 1.0
- IC50 [2]: 0.7 ± 0.1 µM
- Fold-incr [3]: 2.6
- fold increase in resistance [4]: 2.5 fold

Compound: Nc1nc(NC2CC2)c2ncn([C@H]3C=C[C@@H](CO)C3)c2n1.O=C(O)CCC(=O)O [Abacavir, (1S,4R)-4-[2-amino-6-(cyclopropyl-amino)-9H-purin-9-yl]-2-cyclopentene-1-methanol succinate]
- EC50 [5, 6]: 3.9 µM
- EC90 [5, 6]: 11.3 µM

Compound: Cc1cn([C@H]2C=C[C@@H](CO)O2)c(=O)[nH]c1=O [D4T, 2′,3′-dideoxy-2′,3′-didehydrothymidine]
- EC50 [5, 6]: 0.41 µM
- EC90 [5, 6]: 1.5 µM
- resistance of S68del (in words) [5]: does not show increased resistance

Compound: Nc1nc(N)c2ncn([C@H]3CO[C@@H](CO)O3)c2n1 [DAPD, (−)-beta-D-2,6-diaminopurine dioxolane]
- FI EC50 (fold increase in 50% effective concentration) [5]: 38.2
- FI EC90 (fold increase in 90% effective concentration) [5]: 32.4
- EC50 [5, 6]: 7.9 µM
- EC90 [5, 6]: 34.5 µM

Compound: Nc1ccn([C@H]2CC[C@@H](CO)O2)c(=O)n1 [DDC, 2′,3′-dideoxycytidine]
- EC50 [5, 6]: 0.22 µM
- EC90 [5, 6]: 0.93 µM
- resistance of S68del (in words) [5]: does not show increased resistance

Compound: OC[C@@H]1CC[C@H](n2cnc3c(O)ncnc32)O1 [DDI, 2′,3′-dideoxyinosine]
- EC50 [5, 6]: 0.63 µM
- EC90 [5, 6]: 4.5 µM
- resistance of S68del (in words) [5]: does not show increased resistance

Compound: Nc1nc(=O)n([C@H]2C=C[C@@H](CO)O2)cc1F [DFC, β-D-2′,3′-didehydro-2′,3′-dideoxy-5-fluorocytidine]
- EC50 (pNL4-3): 0.21 µM
- EC90 (pNL4-3): 2.3 µM
- EC50 [5, 6]: 1.1 µM
- EC90 [5, 6]: 3.4 µM
- EC50 (S68delpNL4-3; [7]): 3.1 µM
- EC90 (S68delpNL4-3; [7]): 8.5 µM
- FI50, Fold Increase for S68del in 50% effective concentration (S68delpNL4-3; S68del in pNL4-3 versus pNL4-3): 14.7
- FI90, Fold Increase for S68del in 90% effective concentration (S68delpNL4-3; S68del in pNL4-3 versus pNL4-3): 3.7
- resistance of S68delpNL4-3 (in words) (S68delpNL4-3; real-time PCR, human PBM cells): increased resistance
- resistance of S68del RT (in words) ([4]; particle-derived RT, 3.2 mM ATP, FIG. 5): increased resistance

Compound: Cc1cccc(C)c1OCC(=O)N[C@@H](Cc1ccccc1)[C@@H](O)C[C@H](Cc1ccccc1)NC(=O)[C@H](C(C)C)N1CCCNC1=O [Lopinavir]
- EC50 [5, 6]: 0.006 µM
- EC90 [5, 6]: 0.019 µM
- HIVs68Δ-23 susceptibility (in words) [5]: not significantly changed

Compound: O=C1Nc2ccc(Cl)cc2[C@@](C#CC2CC2)(C(F)(F)F)O1 [Sustiva, (S)-6-chloro-4-cyclopropylethynyl-4-trifluoromethyl-1,4-dihydro-2H-3,1-b-enzoxazin-2-one]
- EC50 [5, 6]: 0.00039 µM
- EC90 [5, 6]: 0.0035 µM
- HIVs68Δ-23 susceptibility (in words) [5]: not significantly changed

Compound: CC(C)OC(=O)OCOP(=O)(CO[C@H](C)Cn1cnc2c(N)ncnc21)OCOC(=O)OC(C)C.O=C(O)/C=C/C(=O)O [TDF, 9-[(R)-2-[[bis[[(isopropoxycarbonyl)oxy]methoxy]phosphinyl]methoxy]propyl]adenine fumarate]
- EC50 [5, 6]: 0.43 µM
- EC90 [5, 6]: 1.6 µM
